Measurements published in US9999619B2, “Piperidin-4-yl azetidine derivatives as JAK1 inhibitors” (Incyte Corporation, priority 2010, dated 2018).
Counter-ions that a name gives are not always drawn.

How the values were obtained:
Type in all cases: biochemical
[1] = target: human JAK1 (a.a. 837-1142) (Homo sapiens, UniProt P23458); test: In vitro JAK kinase assay (HTRF, phosphorylation of a biotinylated peptide), JAK1; conditions: measured at 1 mM ATP
Method in brief: (§1)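 N-terminally His-tagged catalytic domains, baculovirus-expressed in insect cells and purified, were used as enzyme. Reactions ran 1 hr at room temperature and were stopped with a mix of 45 mM EDTA, 300 nM SA-APC and 6 nM Eu-Py20. The HTRF signal was read after 40 min of antibody binding.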

[2] = target: human JAK1 (a.a. 837-1142); test: as above; conditions: ratio of JAK2 IC50 to JAK1 IC50, measured at 1 mM ATP
Method in brief: as §1

Jak2 (a.a. 828-1132) = Jak2 (a.a. 828-1132) (Homo sapiens (Human), UniProt O60674); test: In vitro JAK kinase assay (HTRF, phosphorylation of a biotinylated peptide), JAK2; conditions: measured at 1 mM ATP
Method in brief: as §1

Chain of Jak2 (a.a. 828-1132) (O60674 828-1132): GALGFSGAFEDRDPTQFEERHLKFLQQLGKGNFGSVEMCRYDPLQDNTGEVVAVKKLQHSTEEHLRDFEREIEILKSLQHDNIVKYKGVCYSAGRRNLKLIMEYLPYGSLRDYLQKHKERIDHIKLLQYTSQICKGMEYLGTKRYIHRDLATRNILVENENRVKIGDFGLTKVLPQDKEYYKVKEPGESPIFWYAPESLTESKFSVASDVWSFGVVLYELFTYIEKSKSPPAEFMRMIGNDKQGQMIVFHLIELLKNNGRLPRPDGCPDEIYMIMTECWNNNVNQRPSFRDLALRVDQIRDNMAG

| IC50 [1] | IC50 Ratio JAK2/JAK1 [2] | IC50 (Jak2 (a.a. 828-1132)) | SMILES |
| --- | --- | --- | --- |
| ≤ 0.005 µM | 8.1 | 0.01 to 0.05 µM | N#CCC1(n2cc(-c3ncnc4[nH]ccc34)cn2)CN(C2CCN(C(=O)c3ccc(-c4cccc(C#N)c4)c(F)c3)CC2)C1 [Example 125, 4′-[(4-{3-(cyanomethyl)-3-[4-(7H-pyrrolo[2,3-d]pyrimidin-4-yl)-1H-pyrazol-1-yl]azetidin-1-yl}piperidin-1-yl)carbonyl]-2′-fluorobiphenyl-3-carbonitrile] |
| 0.005 to 0.02 µM | 5.7 | 0.01 to 0.05 µM | Cc1nc(C(F)(F)F)ccc1NC(=O)N1CCC(N2CC(CC#N)(n3ccc(-c4ncnc5[nH]ccc45)c3)C2)CC1 [Example 285, 4-{3-(cyanomethyl)-3-[3-(7H-pyrrolo[2,3-d]pyrimidin-4-yl)-1H-pyrrol-1-yl]azetidin-1-yl}-N-[2-methyl-6-(trifluoromethyl)pyridin-3-yl]piperidine-1-carboxamide] |
| 0.005 to 0.02 µM | 6.0 | 0.01 to 0.05 µM | N#CCC1(n2cc(-c3c(C#N)cnc4[nH]ccc34)cn2)CN(C2CCN(C(=O)c3cc(C#N)ccc3C#N)CC2)C1 [Example 337, 2-[(4-{3-(cyanomethyl)-3-[4-(5-cyano-1H-pyrrolo[2,3-b]pyridin-4-yl)-1H-pyrazol-1-yl]azetidin-1-yl}piperidin-1-yl)carbonyl]terephthalonitrile] |
| ≤ 0.005 µM | 35.7 | 0.01 to 0.05 µM | N#CCC1(n2cc(-c3ncnc4[nH]ccc34)cn2)CN(C2CCN(C(=O)c3cc(CN4CC[C@H](F)C4)nc(C(F)(F)F)n3)CC2)C1 [Example 377, {1-(1-{[6-{[(3S)-3-fluoropyrrolidin-1-yl]methyl}-2-(trifluoromethyl)pyrimidin-4-yl]carbonyl}piperidin-4-yl)-3-[4-(7H-pyrrolo[2,3-d]pyrimidin-4-yl)-1H-pyrazol-1-yl]azetidin-3-yl}acetonitrile (trifluoroacetate salt: 4 TFA)] |
| 0.005 to 0.02 µM | 15.0 | > 0.1 µM | N#CCC1(n2cc(-c3ccnc4[nH]ccc34)cn2)CN(C2CCN(C(=O)c3nc(C(F)(F)F)cs3)CC2)C1 [Example 350] |
| ≤ 0.005 µM | 4.4 | 0.01 to 0.05 µM | COc1c(F)c(F)cc(C(=O)N2CCC(N3CC(CC#N)(n4cc(-c5ncnc6[nH]ccc56)cn4)C3)CC2)c1F [Example 32, {3-[4-(7H-pyrrolo[2,3-d]pyrimidin-4-yl)-1H-pyrazol-1-yl]-1-[1-(2,4,5-trifluoro-3-methoxybenzoyl)piperidin-4-yl]azetidin-3-yl}acetonitrile] |
| 0.005 to 0.02 µM | 2.3 | 0.01 to 0.05 µM | COc1ccc(CN2CCC(N3CC(CC#N)(n4cc(-c5ncnc6[nH]ccc56)cn4)C3)CC2)c(Cl)c1OC [Example 239, {1-[1-(2-chloro-3,4-dimethoxybenzyl)piperidin-4-yl]-3-[4-(7H-pyrrolo[2,3-d]pyrimidin-4-yl)-1H-pyrazol-1-yl]azetidin-3-yl}acetonitrile] |
| ≤ 0.005 µM | 6.6 | ≤ 0.01 µM | COc1cscc1C(=O)N1CCC(N2CC(CC#N)(n3cc(-c4ncnc5[nH]ccc45)cn3)C2)CC1 [Example 72, {1-{1-[(4-methoxy-3-thienyl)carbonyl]piperidin-4-yl}-3-[4-(7H-pyrrolo[2,3-d]pyrimidin-4-yl)-1H-pyrazol-1-yl]azetidin-3-yl}acetonitrile] |
| ≤ 0.005 µM | 4.2 | ≤ 0.01 µM | Cc1cc(C(=O)N2CCC(N3CC(CC#N)(n4cc(-c5ncnc6[nH]ccc56)cn4)C3)CC2)cs1 [Example 73, {1-{1-[(5-methyl-3-thienyl)carbonyl]piperidin-4-yl}-3-[4-(7H-pyrrolo[2,3-d]pyrimidin-4-yl)-1H-pyrazol-1-yl]azetidin-3-yl}acetonitrile] |
| ≤ 0.005 µM | 0.5 | ≤ 0.01 µM | COc1cc(OC)cc(C(=O)N2CCC(N3CC(CC#N)(n4cc(-c5ncnc6[nH]ccc56)cn4)C3)CC2)c1 [Example 33, {1-[1-(3,5-dimethoxybenzoyl)piperidin-4-yl]-3-[4-(7H-pyrrolo[2,3-d]pyrimidin-4-yl)-1H-pyrazol-1-yl]azetidin-3-yl}acetonitrile] |
| ≤ 0.005 µM | 19.4 | 0.05 to 0.1 µM | N#CCC1(n2cc(-c3ncnc4[nH]ccc34)cn2)CN(C2CCN(C(=O)c3cncc(C(F)(F)F)n3)CC2)C1 [Example 86, [3-[4-(7H-pyrrolo[2,3-d]pyrimidin-4-yl)-1H-pyrazol-1-yl]-1-(1-{[6-(trifluoromethyl)pyrazin-2-yl]carbonyl}piperidin-4-yl)azetidin-3-yl]acetonitrile] |
| ≤ 0.005 µM | 6.7 | 0.01 to 0.05 µM | N#CCC1(n2cc(-c3c(F)cnc4[nH]ccc34)cn2)CN(C2CCN(C(=O)Nc3cnccc3C(F)(F)F)CC2)C1 [Example 330, 4-{3-(cyanomethyl)-3-[4-(5-fluoro-1H-pyrrolo[2,3-b]pyridin-4-yl)-1H-pyrazol-1-yl]azetidin-1-yl}-N-[4-(trifluoromethyl)pyridin-3-yl]piperidine-1-carboxamide] |
| 0.005 to 0.02 µM | 8.6 | 0.05 to 0.1 µM | N#CCC1(n2cc(-c3ncnc4[nH]ccc34)cn2)CN(C2CCN(C(=O)Nc3ncc(F)cc3F)CC2)C1 [Example 203, 4-{3-(cyanomethyl)-3-[4-(7H-pyrrolo[2,3-d]pyrimidin-4-yl)-1H-pyrazol-1-yl]azetidin-1-yl}-N-(3,5-difluoropyridin-2-yl)piperidine-1-carboxamide] |
| ≤ 0.005 µM | 9.0 | 0.01 to 0.05 µM | N#CCC1(n2ccc(-c3ncnc4[nH]ccc34)c2)CN(C2CCN(C(=O)c3cc(F)cc(C(F)(F)F)c3)CC2)C1 [Example 274, {1-{1-[3-fluoro-5-(trifluoromethyl)benzoyl]piperidin-4-yl}-3-[3-(7H-pyrrolo[2,3-d]pyrimidin-4-yl)-1H-pyrrol-1-yl]azetidin-3-yl}acetonitrile] |
| ≤ 0.005 µM | 5.3 | 0.01 to 0.05 µM | N#CCC1(n2cc(-c3ncnc4[nH]ccc34)cn2)CN(C2CCN(C(=O)c3cccc(Cl)n3)CC2)C1 [Example 13, {1-{1-[(6-chloropyridin-2-yl)carbonyl]piperidin-4-yl}-3-[4-(7H-pyrrolo[2,3-d]pyrimidin-4-yl)-1H-pyrazol-1-yl]azetidin-3-yl}acetonitrile] |
| ≤ 0.005 µM | 11.0 | 0.01 to 0.05 µM | N#CCC1(n2cc(-c3c(F)cnc4[nH]ccc34)cn2)CN(C2CCN(C(=O)c3ccnc(C(F)(F)F)c3F)CC2)C1 [Example 314, (3-[4-(5-Fluoro-1H-pyrrolo[2,3-b]pyridin-4-yl)-1H-pyrazol-1-yl]-1-{1-[3-fluoro-2-(trifluoromethyl)isonicotinoyl]piperidin-4-yl}azetidin-3-yl)acetonitrile] |
| ≤ 0.005 µM | 4.0 | 0.01 to 0.05 µM | COc1ccccc1NC(=O)N1CCC(N2CC(CC#N)(n3cc(-c4ncnc5[nH]ccc45)cn3)C2)CC1 [Example 180, 4-{3-(cyanomethyl)-3-[4-(7H-pyrrolo[2,3-d]pyrimidin-4-yl)-1H-pyrazol-1-yl]azetidin-1-yl}-N-(2-methoxyphenyl)piperidine-1-carboxamide] |
| ≤ 0.005 µM | 36.8 | 0.01 to 0.05 µM | CCN(CC)Cc1cc(C(=O)N2CCC(N3CC(CC#N)(n4cc(-c5ncnc6[nH]ccc56)cn4)C3)CC2)nc(C(F)(F)F)n1 [Example 373, {1-(1-{[6-[(diethylamino)methyl]-2-(trifluoromethyl)pyrimidin-4-yl]carbonyl}piperidin-4-yl)-3-[4-(7H-pyrrolo[2,3-d]pyrimidin-4-yl)-1H-pyrazol-1-yl]azetidin-3-yl}acetonitrile] |
| ≤ 0.005 µM | 1.6 | ≤ 0.01 µM | COC(=O)c1ccccc1NC(=O)N1CCC(N2CC(CC#N)(n3cc(-c4ncnc5[nH]ccc45)cn3)C2)CC1 [Example 206, methyl 2-{[(4-{3-(cyanomethyl)-3-[4-(7H-pyrrolo[2,3-d]pyrimidin-4-yl)-1H-pyrazol-1-yl]azetidin-1-yl}piperidin-1-yl)carbonyl]amino}benzoate] |
| 0.02 to 0.03 µM | 3.3 | 0.05 to 0.1 µM | N#CCC1(n2cc(-c3ccnc4[nH]ccc34)cn2)CN(C2CCN(C(=O)c3cnc(C(F)(F)F)cn3)CC2)C1 [Example 301, [3-[4-(1H-pyrrolo[2,3-b]pyridin-4-yl)-1H-pyrazol-1-yl]-1-(1-{[5-(trifluoromethyl)pyrazin-2-yl]carbonyl}piperidin-4-yl)azetidin-3-yl]acetonitrile] |
| ≤ 0.005 µM | 18.9 | 0.05 to 0.1 µM | N#CCC1(n2cc(-c3ncnc4[nH]ccc34)cn2)CN(C2CCN(C(=O)c3nc(C(F)(F)F)cs3)CC2)C1 [Example 344, [3-[4-(7H-Pyrrolo[2,3-d]pyrimidin-4-yl)-1H-pyrazol-1-yl]-1-(1-{[4-(trifluoromethyl)-1,3-thiazol-2-yl]carbonyl}piperidin-4-yl)azetidin-3-yl]acetonitrile] |

| SMILES | IC50 [1] | IC50 Ratio JAK2/JAK1 [2] | IC50 (Jak2 (a.a. 828-1132)) |
| --- | --- | --- | --- |
| N#CCC1(n2cc(-c3ncnc4[nH]ccc34)cn2)CN(C2CCN(C(=O)Nc3ccc(F)cc3F)CC2)C1 [Example 171, 4-{3-(cyanomethyl)-3-[4-(7H-pyrrolo[2,3-d]pyrimidin-4-yl)-1H-pyrazol-1-yl]azetidin-1-yl}-N-(2,4-difluorophenyl)piperidine-1-carboxamide] | ≤ 0.005 µM | 7.5 | 0.01 to 0.05 µM |
| N#CCC1(n2ccc(-c3ncnc4[nH]ccc34)c2)CN(C2CCN(C(=O)Nc3ncccc3C(F)(F)F)CC2)C1 [Example 290, 4-{3-(cyanomethyl)-3-[3-(7H-pyrrolo[2,3-d]pyrimidin-4-yl)-1H-pyrrol-1-yl]azetidin-1-yl}-N-[3-(trifluoromethyl)pyridin-2-yl]piperidine-1-carboxamide] | 0.02 to 0.03 µM | 3.9 | > 0.1 µM |
